Assay results: US20230277459A1, “PHARMACEUTICAL COMPOSITIONS HAVING HIGH DRUG LOADINGS OF MEDIUM CHAIN TRIGLYCERIDES AND METHODS RELATED THERETO” (CERECIN INC., priority 2017, published 2023)

Experiment: In-vitro digestion pH titration
Format: in vitro ADME
Conditions: FIG. 9
Source text: The digestion pH titration curves for both compositions, as well as control samples F-11 and the Miglyol 808 oil are shown in FIG. 9.

Q: With `CCCCCCCC(=O)OCC(COC(=O)CCCCCCC)OC(=O)CCCCCCC` [Miglyol 808 oil, caprylic triglyceride] as the molecule, how does the “digestion pH titration curve” value read?
A: Its value is “sigmoidal titration curve, and is slower to reach the endpoint”.
